Data from patent publication US7312248B2, “Control of parasites in animals by the use of novel trifluoromethanesulfonanilide oxime ether derivatives” (Schering-Plough Animal Health Corporation, priority 2004, dated 2007).
Where two headings read alike, the source gives them in different places.

What was measured:
[1] = tested on: Haemonchus contortus; assay: Haemonchus contortus larvacidal (larval development) assay; type: in vivo; conditions: 144 h, read-out: Haemonchus contortus LD99
Description: a) Haemonchus Contortus Larvacidal Assay:
The effect of compounds on larval development was determined in the assay described by Gill et al. (1995, International Journal of Parasitology 25:463-470). Briefly, in this assay, nematode eggs were applied to the surface of an agar matrix containing the test compound and then allowed to develop through to the L3, infective stage (6 days). The wells for each dilution of every compound (from highest to lowest concentration) were inspected to determine the well number corresponding to the lowest concentration at which development was inhibited in 99% of the nematode larvae present (LD99). Because well numbers correspond to a two-fold serial dilution of each compound, a titre (dilution factor) is generated as 2^n−1, where n is the well number. By dividing the highest concentration tested by the titre an LD99 value can be obtained, representing the concentration required to inhibit development in 99% of the nematode larvae present. The compounds supplied as solid and viscous liquids were dissolved in DMSO. Twelve serial one-half dilutions in DMSO solution were prepared from the stock solution, each of which was then diluted ⅕ with water. Aliquots (10 μl) of each dilution were transferred to the bioassay plates to give a final concentration range of 0.024 to 50 μg/ml.

[2] = tested on: cat flea (Ctenocephalides felis); assay: whole plant or invertebrate; type: in vivo; conditions: Ctenocephalides felis
Description: b) Ctenocephalides felis Adulticide Assay: C. felis Single Dose Screen
Mortality of fleas was the primary endpoint in the assay. Fleas were considered dead if they didn't move or were on their sides and unable to walk or right themselves. […] The concentration chosen (1.26 μg/cm^2) was higher than that known to kill 90% of cat fleas (LC90) using the reference compound, permethrin.
The test species was the cat flea (Ctenocephalides felis). The strain used was obtained from external suppliers as pupae and held in the laboratory under testing conditions until the adults had emerged. Fifteen (15) fleas were used in a minimum of four replicates against a single concentration level (approximately 60 fleas). The insects were selected to be in the adult life stage, aged between 3 and 7 days post emergence.
The compounds to be tested were supplied as solids and were prepared in acetone as described below prior to testing. Samples were stored in a refrigerator (5±1° C.) unless otherwise specified.
During the mortality testing, the temperature was maintained at 25±1° C. Humidity was maintained at 75±5%. The base (area=159 mm^2) of a 100 mL glass Erlenmeyer (conical) flask provided the treatment surface. Flasks were pretreated with Coatasil™ glass treatment to maximise bio-availability of test compounds by preventing them from binding to glass the surface. The base of the 100 mL Erlenmeyer flask was treated with 0.5 mL of test sample in acetone and gently swirled. This volume was sufficient to cover the base of the flask. Flasks were left to dry for 24 hours before flea exposure.
Adult cat fleas were placed into a sorting chamber, which allowed fleas to jump into the Erlenmeyer flasks. Fifteen (15) adult cat fleas were collected in each flask. The top of the flasks were then covered in Parafilm™ and small holes were made to allow gas exchange. A 0.5 mL volume of acetone as a solvent control was applied to the base of an Erlenmeyer flask and the testing proceeded in the same manner described above. Cat fleas in the treatment containers were held under testing conditions for 8, 24 and/or 48 hours. Mortality was recorded at 8, 24, 8 and 24, or 24 and 48 hours. Pooled 8, 24, 8 and 24, and 24 and 48 hour mortality data were converted to percentages and are summarized by Tables 14, 14A and 14B, below.

[3] = 8 h, read-out: C. felis Mortality (%) 8 h, 8 h, Laboratory 1 A data
[4] = 24 h, read-out: C. felis Mortality (%) 24 h, 24 h, Laboratory 1 A data

SMILES: C/C(=N\OCc1ccc(C(F)(F)F)cc1C(F)(F)F)c1cc(Cl)ccc1NS(=O)(=O)C(F)(F)F [Compound 2, N-{2-[1-(2,4-bistrifluoromethylbenzyloxyimino)ethyl]-4-chlorophenyl}trifluoromethanesulfonamide]
- IC99 [1]: 0.1 µg/mL
- mortality at 1.26 µg/cm2, 1.26 µg/cm2 [2, 3]: 2%

SMILES: CC/C(=N\OCc1ccc(C(C)(C)C)cc1)c1cc(Cl)ccc1NS(=O)(=O)C(F)(F)F [Compound 5]
- IC99 [1]: 3.3 µg/mL
- mortality at 1.26 µg/cm2, 1.26 µg/cm2 [2, 3]: 8%

SMILES: C/C(=N\OCc1ccc(C(F)(F)F)cc1)c1cc(Cl)ccc1NS(=O)(=O)C(F)(F)F [Compound 14]
- IC99 [1]: 0.9 µg/mL
- mortality at 1.26 µg/cm2, 1.26 µg/cm2 [2, 3]: 2%

SMILES: C/C(=N\OCc1ccc(Cl)cc1)c1cc(Cl)ccc1NS(=O)(=O)C(F)(F)F [Compound 16]
- IC99 [1]: 1.3 µg/mL
- mortality at 1.26 µg/cm2, 1.26 µg/cm2 ([2]; 8 h, read-out: C. felis Mortality (%) 8 h, 8 h, Laboratory 2 B data): 90%
- mortality at 1.26 µg/cm2, 1.26 µg/cm2 ([2]; 24 h, read-out: C. felis Mortality (%) 24 h, 24 h, Laboratory 2 B data): 100%

SMILES: C/C(=N\OCc1ccc(Cl)cc1Cl)c1cc(Cl)ccc1NS(=O)(=O)C(F)(F)F [Compound 21]
- IC99 [1]: 0.7 µg/mL
- mortality at 1.26 µg/cm2, 1.26 µg/cm2 [2, 3]: 5%

SMILES: C/C(=N\OCC=C(Cl)Cl)c1cc(Cl)ccc1NS(=O)(=O)C(F)(F)F [Compound 38]
- IC99 [1]: 0.9 µg/mL
- mortality at 1.26 µg/cm2, 1.26 µg/cm2 [2, 3]: 8%

SMILES: O=S(=O)(Nc1ccc(Cl)cc1/C(=N/OCc1ccc(Cl)cc1Cl)c1ccccc1)C(F)(F)F [Compound 61]
- IC99 [1]: 1.7 µg/mL
- mortality at 1.26 µg/cm2, 1.26 µg/cm2 [2, 3]: 17%

SMILES: O=S(=O)(Nc1ccc(Cl)cc1/C=N/OCc1ccc(C(F)(F)F)cc1C(F)(F)F)C(F)(F)F [Compound 65, N-{2-[(2,4-bistrifluoromethylbenzyloxyimino)methyl]-4-chlorophenyl}trifluoromethanesulfonamide]
- IC99 [1]: 0.3 µg/mL
- mortality at 1.26 µg/cm2, 1.26 µg/cm2 [2, 3]: 10%

SMILES: O=S(=O)(Nc1ccc(Cl)cc1/C=N/OCc1ccc(Cl)cc1Cl)C(F)(F)F [Compound 67]
- IC99 [1]: 0.9 µg/mL
- mortality at 1.26 µg/cm2, 1.26 µg/cm2 [2, 3]: 12%

SMILES: O=S(=O)(Nc1ccc(Cl)cc1/C(=N/OCc1ccccc1C(F)(F)F)c1ccccc1)C(F)(F)F [Compound 69]
- IC99 [1]: 2.7 µg/mL

SMILES: O=S(=O)(Nc1ccc(Cl)cc1/C=N/OCc1ccc(C(F)(F)F)cc1)C(F)(F)F [Compound 70]
- IC99 [1]: 3 µg/mL

SMILES: O=S(=O)(Nc1ccc(Cl)cc1/C(=N/OCc1cccc(Cl)c1)c1ccccc1)C(F)(F)F [Compound 71]
- IC99 [1]: 3 µg/mL

SMILES: C/C(=N\OCc1ccc(C#N)cc1)c1cc(Cl)ccc1NS(=O)(=O)C(F)(F)F [Compound 73]
- IC99 [1]: 5 µg/mL
- mortality at 1.26 µg/cm2, 1.26 µg/cm2 [2, 3]: 1%

SMILES: CC/C(=N\OCc1c(F)c(F)c(F)c(F)c1F)c1cc(Cl)ccc1NS(=O)(=O)C(F)(F)F [Compound 77]
- IC99 [1]: 2.5 µg/mL
- mortality at 1.26 µg/cm2, 1.26 µg/cm2 [2, 3]: 3%

SMILES: O=S(=O)(Nc1ccc(Cl)cc1/C(=N/OCc1ccc(C(F)(F)F)cc1C(F)(F)F)c1ccccc1)C(F)(F)F [Compound 78]
- IC99 [1]: 1.8 µg/mL
- mortality at 1.26 µg/cm2, 1.26 µg/cm2 [2, 3]: 21%

SMILES: N#Cc1ccc(CO/N=C(\c2ccccc2)c2cc(Cl)ccc2NS(=O)(=O)C(F)(F)F)cc1 [Compound 80]
- IC99 [1]: 3.5 µg/mL

SMILES: O=S(=O)(Nc1ccc(Cl)cc1/C=N/OCc1ccc(Cl)cc1)C(F)(F)F [Compound 81]
- IC99 [1]: 1.7 µg/mL

SMILES: O=S(=O)(Nc1ccc(Cl)cc1/C(=N/OCc1ccc(F)cc1F)c1ccccc1)C(F)(F)F [Compound 82]
- IC99 [1]: 3.3 µg/mL

SMILES: CC/C(=N\OCc1ccc(F)cc1F)c1cc(Cl)ccc1NS(=O)(=O)C(F)(F)F [Compound 84]
- IC99 [1]: 3.3 µg/mL
- mortality at 1.26 µg/cm2, 1.26 µg/cm2 [2, 3]: 95%

SMILES: CC/C(=N\OC/C=C/c1ccccc1)c1cc(Cl)ccc1NS(=O)(=O)C(F)(F)F [Compound 85]
- IC99 [1]: 1.6 µg/mL
- mortality at 1.26 µg/cm2, 1.26 µg/cm2 [2, 3]: 6%

SMILES: CC/C(=N\OCc1ccc(F)cc1)c1cc(Cl)ccc1NS(=O)(=O)C(F)(F)F [Compound 86]
- IC99 [1]: 3.5 µg/mL

SMILES: O=S(=O)(Nc1ccc(Cl)cc1/C(=N/OCc1ccc(Cl)c(Cl)c1)c1ccccc1)C(F)(F)F [Compound 87, N-{4-chloro-2-[(3,4-dichlorobenzyloxyimino)phenylmethyl]phenyl}trifluoromethanesulfonamide]
- IC99 [1]: 1.3 µg/mL
- mortality at 1.26 µg/cm2, 1.26 µg/cm2 [2, 3]: 5%

SMILES: COc1ccc(CO/N=C(\c2ccccc2)c2cc(Cl)ccc2NS(=O)(=O)C(F)(F)F)cc1 [Compound 88]
- IC99 [1]: 15 µg/mL

SMILES: CC/C(=N\OCc1ccc(C#N)cc1)c1cc(Cl)ccc1NS(=O)(=O)C(F)(F)F [Compound 91]
- IC99 [1]: 13 µg/mL
- mortality at 1.26 µg/cm2, 1.26 µg/cm2 [2, 4]: 67%

SMILES: CCC/C(=N\OCc1ccc(C(F)(F)F)cc1)c1cc(Cl)ccc1NS(=O)(=O)C(F)(F)F [Compound 92]
- IC99 [1]: 1.6 µg/mL
- mortality at 1.26 µg/cm2, 1.26 µg/cm2 [2, 3]: 36%

SMILES: CC/C(=N\OCc1ccc(-c2ccccc2)cc1)c1cc(Cl)ccc1NS(=O)(=O)C(F)(F)F [Compound 94]
- IC99 [1]: 7.5 µg/mL

SMILES: O=S(=O)(Nc1ccc(Cl)cc1/C=N/OCc1cccc(Cl)c1Cl)C(F)(F)F [Compound 95]
- IC99 [1]: 0.8 µg/mL

SMILES: O=S(=O)(Nc1ccc(Cl)cc1/C=N/OCc1ccc(Br)cc1)C(F)(F)F [Compound 96]
- IC99 [1]: 0.7 µg/mL
- mortality at 1.26 µg/cm2, 1.26 µg/cm2 [2, 4]: 21%

SMILES: O=S(=O)(Nc1ccc(Cl)cc1/C=N/OCc1ccc(Cl)c(Cl)c1)C(F)(F)F [Compound 97, N-{4-chloro-2-[(3,4-dichlorobenzyloxyimino)methyl]phenyl}trifluoromethanesulfonamide]
- IC99 [1]: 0.6 µg/mL
- mortality at 1.26 µg/cm2, 1.26 µg/cm2 [2, 4]: 42%

SMILES: CCC/C(=N\OCc1ccc(C(F)(F)F)cc1C(F)(F)F)c1cc(Cl)ccc1NS(=O)(=O)C(F)(F)F [Compound 98]
- IC99 [1]: 1.4 µg/mL
- mortality at 1.26 µg/cm2, 1.26 µg/cm2 [2, 3]: 79%

SMILES: CCC/C(=N\OCc1cccc(Cl)c1Cl)c1cc(Cl)ccc1NS(=O)(=O)C(F)(F)F [Compound 99]
- IC99 [1]: 2.5 µg/mL

SMILES: CCC/C(=N\OCc1ccc(Cl)c(Cl)c1)c1cc(Cl)ccc1NS(=O)(=O)C(F)(F)F [Compound 101]
- IC99 [1]: 1.9 µg/mL

SMILES: CCC/C(=N\OCc1ccc(Br)cc1)c1cc(Cl)ccc1NS(=O)(=O)C(F)(F)F [Compound 102]
- IC99 [1]: 1.9 µg/mL

SMILES: CC/C(=N\OCCCc1ccccc1)c1cc(Cl)ccc1NS(=O)(=O)C(F)(F)F [Compound 105]
- IC99 [1]: 3.5 µg/mL

SMILES: CC/C(=N\OCc1ccccc1)c1cc(Cl)ccc1NS(=O)(=O)C(F)(F)F [Compound 107]
- IC99 [1]: 10 µg/mL

SMILES: CC(C)/C(=N\OCc1ccc(C(F)(F)F)cc1)c1cc(Cl)ccc1NS(=O)(=O)C(F)(F)F [Compound 108]
- IC99 [1]: 1.3 µg/mL
- mortality at 1.26 µg/cm2, 1.26 µg/cm2 [2, 3]: 12%

SMILES: CCC/C(=N\OCCc1ccccc1)c1cc(Cl)ccc1NS(=O)(=O)C(F)(F)F [Compound 110]
- IC99 [1]: 5 µg/mL

SMILES: CCC/C(=N\OCc1ccc(Cl)cc1)c1cc(Cl)ccc1NS(=O)(=O)C(F)(F)F [Compound 112]
- IC99 [1]: 3 µg/mL

SMILES: CCC/C(=N\OCc1cc(Br)cc(Br)c1)c1cc(Cl)ccc1NS(=O)(=O)C(F)(F)F [Compound 113]
- IC99 [1]: 3.8 µg/mL

SMILES: CCC/C(=N\OCCOc1ccccc1)c1cc(Cl)ccc1NS(=O)(=O)C(F)(F)F [Compound 115]
- IC99 [1]: 7.5 µg/mL

SMILES: CC(C)/C(=N\OCc1ccc(Cl)cc1)c1cc(Cl)ccc1NS(=O)(=O)C(F)(F)F [Compound 117]
- IC99 [1]: 3.5 µg/mL

SMILES: CC(C)/C(=N\OCc1ccc(C2CCCCC2)cc1)c1cc(Cl)ccc1NS(=O)(=O)C(F)(F)F [Compound 118]
- IC99 [1]: 10 µg/mL

SMILES: CC(C)/C(=N\OCc1ccc(Cl)cc1Cl)c1cc(Cl)ccc1NS(=O)(=O)C(F)(F)F [Compound 119]
- IC99 [1]: 1.2 µg/mL

SMILES: C/C(=N\OC(C)c1ccccc1)c1cc(Cl)ccc1NS(=O)(=O)C(F)(F)F (stereo not shown) [Compound 122]
- IC99 [1]: 7 µg/mL

SMILES: O=S(=O)(Nc1ccc(Cl)cc1-c1cc(-c2ccccc2)on1)C(F)(F)F [Compound 225]
- IC99 ([1]; lowest concentration inhibiting development in 99% of larvae, eggs to L3, 6 days, range 0.024 to 50 μg/ml): 3.2 µg/mL
